According to PubChem BioAssay AID328 (DTP/NCI, 2004):
Where “and” joins values, the source holds several entries; their conditions need not be identical. Equal entries are not always repeated. Toxic doses and inconclusive results are not listed.

Test system: BDF1 mice, P388 leukemia ip, median survival T/C
Assay: NCI In Vivo Anticancer Drug Screen. Data for tumor model P388 Leukemia (intraperitoneal) in B6D2F1 (BDF1) mice
Settings: endpoint: median survival time, higher = longer survival
How it was run: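 Transplantable tumour in mice; compound vs vehicle dosing; survival scored; ratio of treated to control reported.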

[1] = dose: 100.0 mg/kg/injection, schedule: Q04DX003 (ip), vehicle: saline with Tween-80
[2] = dose: 200.0 mg/kg/injection, schedule: Q04DX003 (ip), vehicle: saline with Tween-80
[3] = dose: 400.0 mg/kg/injection, schedule: Q04DX003 (ip), vehicle: saline with Tween-80
[4] = dose: 25.0 mg/kg/injection, schedule: Q01DX009 (ip), vehicle: saline
[5] = dose: 25.0 mg/kg/injection, schedule: Q04DX003 (ip), vehicle: saline
[6] = dose: 50.0 mg/kg/injection, schedule: Q01DX009 (ip), vehicle: saline
[7] = dose: 50.0 mg/kg/injection, schedule: Q04DX003 (ip), vehicle: saline
[8] = dose: 200.0 mg/kg/injection, schedule: Q04DX003 (ip), vehicle: saline
[9] = dose: 400.0 mg/kg/injection, schedule: Q01DX009 (ip), vehicle: saline
[10] = dose: 400.0 mg/kg/injection, schedule: Q04DX003 (ip), vehicle: saline
[11] = dose: 50.0 mg/kg/injection, schedule: Q01DX009 (ip), vehicle: saline with Tween-80
[12] = dose: 100.0 mg/kg/injection, schedule: Q01DX009 (ip), vehicle: saline with Tween-80
[13] = dose: 200.0 mg/kg/injection, schedule: Q01DX009 (ip), vehicle: saline with Tween-80
[14] = dose: 12.5 mg/kg/injection, schedule: Q01DX009 (ip), vehicle: saline with Tween-80
[15] = dose: 25.0 mg/kg/injection, schedule: Q01DX009 (ip), vehicle: saline with Tween-80

Clc1c(Cl)c(CBr)c(Cl)c(CBr)c1Cl
T/C (dose: 20.0 mg/kg/injection, schedule: Q01DX009 (ip), vehicle: Klucel (hydroxypropylcellulose) (HPC)): 100 % of control
T/C (dose: 40.0 mg/kg/injection, schedule: Q01DX009 (ip), vehicle: Klucel (hydroxypropylcellulose) (HPC)): 95 % of control
T/C (dose: 50.0 mg/kg/injection, schedule: Q01DX009 (ip), vehicle: saline sonified): 113 % of control
T/C (dose: 50.0 mg/kg/injection, schedule: Q04DX003 (ip), vehicle: Klucel (hydroxypropylcellulose) (HPC)): 100 % of control
T/C (dose: 88.0 mg/kg/injection, schedule: Q04DX003 (ip), vehicle: Klucel (hydroxypropylcellulose) (HPC)): 108 % of control
T/C (dose: 100.0 mg/kg/injection, schedule: Q01DX009 (ip), vehicle: saline sonified): 118 % of control
T/C (dose: 100.0 mg/kg/injection, schedule: Q04DX003 (ip), vehicle: Klucel (hydroxypropylcellulose) (HPC)): 110 % of control
T/C (dose: 132.0 mg/kg/injection, schedule: Q04DX003 (ip), vehicle: Klucel (hydroxypropylcellulose) (HPC)): 91 % of control
T/C (dose: 132.0 mg/kg/injection, schedule: Q04DX003 (ip), vehicle: saline sonified): 122 % of control
T/C (dose: 200.0 mg/kg/injection, schedule: Q04DX003 (ip), vehicle: saline sonified): 150 % of control

COc1cc(C=O)ccc1OCc1ccccc1
T/C (dose: 1.0 mg/kg/injection, schedule: Q01DX009 (ip), vehicle: saline with Tween-80): 109 % of control
T/C (dose: 2.0 mg/kg/injection, schedule: Q01DX009 (ip), vehicle: saline with Tween-80): 104 % of control
T/C (dose: 4.0 mg/kg/injection, schedule: Q01DX009 (ip), vehicle: saline with Tween-80): 104 % of control
T/C (dose: 8.0 mg/kg/injection, schedule: Q01DX009 (ip), vehicle: saline with Tween-80): 92 % of control
T/C [1]: 95 % of control
T/C [2]: 109 % of control
T/C [3]: 109 % of control

COc1ccc(CN(C(C)=O)c2cc(C)c([N+](=O)[O-])cc2OC)cc1OC
T/C [4]: 103 % of control
T/C [5]: 87 % of control and 107 % of control
T/C [6]: 87 % of control
T/C [7]: 88 % of control and 107 % of control
T/C (dose: 100.0 mg/kg/injection, schedule: Q01DX009 (ip), vehicle: saline): 111 % of control
T/C (dose: 150.0 mg/kg/injection, schedule: Q04DX003 (ip), vehicle: saline): 106 % of control
T/C (dose: 200.0 mg/kg/injection, schedule: Q01DX009 (ip), vehicle: saline): 108 % of control
T/C [8]: 99 % of control and 107 % of control
T/C (dose: 300.0 mg/kg/injection, schedule: Q04DX003 (ip), vehicle: saline): 114 % of control
T/C [9]: 100 % of control
T/C [10]: 100 % of control

N#CC(Nc1ccccc1)C1CC1c1ccccc1 (centres undefined)
T/C (dose: 12.5 mg/kg/injection, schedule: Q01DX009 (ip), vehicle: Klucel (hydroxypropylcellulose) (HPC)): 90 % of control
T/C (dose: 25.0 mg/kg/injection, schedule: Q01DX009 (ip), vehicle: Klucel (hydroxypropylcellulose) (HPC)): 90 % of control
T/C (dose: 50.0 mg/kg/injection, schedule: Q01DX009 (ip), vehicle: Klucel (hydroxypropylcellulose) (HPC)): 90 % of control

Cc1ccc2nc3c4ccccc4c4ccccc4c3nc2c1
T/C (dose: 100.0 mg/kg/injection, schedule: Q01DX009 (ip), vehicle: Klucel (hydroxypropylcellulose) (HPC)): 109 % of control
T/C (dose: 200.0 mg/kg/injection, schedule: Q01DX009 (ip), vehicle: Klucel (hydroxypropylcellulose) (HPC)): 90 % of control
T/C (dose: 400.0 mg/kg/injection, schedule: Q01DX009 (ip), vehicle: Klucel (hydroxypropylcellulose) (HPC)): 100 % of control

C[n+]1cccc(NC(=O)c2ccc(NC(=O)c3ccc(C(=O)Nc4ccc(NC(=N)N)cc4)cc3)cc2)c1
T/C (dose: 3.3 mg/kg/injection, schedule: Q04DX003 (ip), vehicle: saline): 150 % of control
T/C (dose: 5.0 mg/kg/injection, schedule: Q04DX003 (ip), vehicle: saline): 159 % of control
T/C (dose: 5.56 mg/kg/injection, schedule: Q04DX003 (ip), vehicle: saline): 180 % of control
T/C (dose: 7.5 mg/kg/injection, schedule: Q04DX003 (ip), vehicle: saline): 195 % of control
T/C (dose: 8.33 mg/kg/injection, schedule: Q04DX003 (ip), vehicle: saline): 235 % of control
T/C (dose: 12.5 mg/kg/injection, schedule: Q04DX003 (ip), vehicle: saline): 235 % of control
T/C (dose: 18.7 mg/kg/injection, schedule: Q04DX003 (ip), vehicle: saline): 155 % of control

Oc1ccc(OCc2ccccc2)cc1
T/C (dose: 100.0 mg/kg/injection, schedule: Q04DX003 (ip), vehicle: other): 100 % of control
T/C (dose: 200.0 mg/kg/injection, schedule: Q04DX003 (ip), vehicle: other): 104 % of control
T/C (dose: 400.0 mg/kg/injection, schedule: Q04DX003 (ip), vehicle: other): 100 % of control

CCOC(=O)N(C)C(C)Cc1ccccc1 (centres undefined)
T/C [11]: 105 % of control
T/C [12]: 118 % of control

COc1cccc(CCNC(=O)CC#N)c1
T/C [12]: 100 % of control
T/C [1]: 110 % of control
T/C [13]: 110 % of control
T/C [2]: 100 % of control
T/C (dose: 400.0 mg/kg/injection, schedule: Q01DX009 (ip), vehicle: saline with Tween-80): 100 % of control
T/C [3]: 100 % of control

c1ccc(NNc2c3ccccc3nc3ccccc23)cc1
T/C [11]: 102 % of control
T/C [12]: 102 % of control

O=C(Nc1cccc2c1C(=O)c1cccc(NC(=O)c3ccc(C(=O)Nc4cccc5c4C(=O)c4cccc(NC(=O)c6ccccc6)c4C5=O)cc3)c1C2=O)c1ccccc1
T/C (dose: 6.25 mg/kg/injection, schedule: Q01DX009 (ip), vehicle: saline with Tween-80): 92 % of control
T/C [14]: 107 % of control
T/C [15]: 111 % of control

COc1ccc(/C(C#N)=C2C=C/C(=N\O)C(C)=C/2Cl)cc1
T/C (dose: 12.5 mg/kg/injection, schedule: Q04DX003 (ip), vehicle: saline with Tween-80): 91 % of control
T/C (dose: 25.0 mg/kg/injection, schedule: Q04DX003 (ip), vehicle: saline with Tween-80): 91 % of control
T/C (dose: 50.0 mg/kg/injection, schedule: Q04DX003 (ip), vehicle: saline with Tween-80): 87 % of control

Cc1nc(C(=O)O)c(=O)[nH]c1C
T/C (dose: 50.0 mg/kg/injection, schedule: Q01DX009 (ip), vehicle: water): 114 % of control
T/C (dose: 50.0 mg/kg/injection, schedule: Q04DX003 (ip), vehicle: water): 94 % of control
T/C (dose: 100.0 mg/kg/injection, schedule: Q01DX009 (ip), vehicle: water): 122 % of control
T/C (dose: 100.0 mg/kg/injection, schedule: Q04DX003 (ip), vehicle: water): 105 % of control
T/C (dose: 200.0 mg/kg/injection, schedule: Q01DX009 (ip), vehicle: water): 121 % of control
T/C (dose: 200.0 mg/kg/injection, schedule: Q04DX003 (ip), vehicle: water): 100 % of control

O=C1NC(=O)C(c2ccc(C(F)(F)F)cc2)(c2ccc(C(F)(F)F)cc2)N1
T/C [14]: 104 % of control
T/C [15]: 90 % of control
T/C [11]: 113 % of control
T/C [1]: 90 % of control
T/C [2]: 90 % of control
T/C [3]: 104 % of control

COc1ccc2nc(Cl)c(C)c(C)c2c1
T/C (dose: 12.5 mg/kg/injection, schedule: Q01DX009 (ip), vehicle: saline): 96 % of control
T/C [4]: 88 % of control
T/C [5]: 100 % of control
T/C [6]: 93 % of control
T/C [7]: 100 % of control
T/C (dose: 100.0 mg/kg/injection, schedule: Q04DX003 (ip), vehicle: saline): 109 % of control
T/C [8]: 90 % of control
T/C [9]: 92 % of control
T/C [10]: 100 % of control

CCOP(=O)(O)OCC.[Al]
T/C [11]: 100 % of control
T/C [12]: 103 % of control
T/C [13]: 103 % of control
